The nature of data set [1]: Compound stability in human liver microsomes (Example 15). The conditions noted are these: 1 μM test compound; for half-life at 1 μM: pH 7.4, pooled human liver microsomes 0.5 mg/mL, 2 mM NADPH, 37° C., 0-30 min; for % Difference (t1/2 compared to erlotinib): [(deuterated species) − (nondeuterated species)](100)/(nondeuterated species), reference erlotinib, 0.5 mg/mL HLM. The class given is in vitro ADME. The procedure: Evaluation of Compound Stability in Human Liver Microsomes. […] The metabolic stability of compounds of the invention was tested using pooled liver microsomal incubations. Samples of the test compounds, exposed to pooled human liver microsomes, were analyzed using HPLC-MS (or MS/MS) detection. For determining metabolic stability, multiple reaction monitoring (MRM) was used to measure the disappearance of the test compounds. Experimental Procedures. Human liver microsomes (“HLM”; 20 mg/mL) were obtained from Xenotech, LLC (Lenexa, Kans.). β-nicotinamide adenine dinucleotide phosphate, reduced form (NADPH), magnesium chloride (MgCl2), and dimethyl sulfoxide (DMSO) were purchased from Sigma-Aldrich. Stock solutions of test compounds (7.5 mM) were prepared in DMSO. The 7.5 mM stock solutions were diluted to 50 μM in acetonitrile (ACN). The 20 mg/mL human liver microsomes were diluted to 0.625 mg/mL in 0.1 M potassium phosphate buffer, pH 7.4, containing 3 mM MgCl2. The diluted microsomes (375 μL) were added to wells of a 96-well deep-well polypropylene plate in triplicate. A 10 μL aliquot of the 50 μM test compound solution was added to the microsomes and the mixture was pre-warmed for 10 minutes. Reactions were initiated by addition of 125 μL of pre-warmed NADPH solution (8 mM NADPH in 0.1M potassium phosphate buffer, pH 7.4, containing 3 mM MgCl2). The final reaction volume was 0.5 mL and contained 0.5 mg/mL human liver microsomes, 1 μM test compound, and 2 mM NADPH in 0.1 M potassium phosphate buffer, pH 7.4, and 3 mM MgCl2. The reaction mixtures were incubated at 37° C., and 50 μL aliquots were removed at 0, 5, 10, 20, and 30 minutes and added to shallow-well 96-well plates which contained 50 μL of ice-cold ACN with internal standard to stop the reactions. The plates were stored at 4° C. for 20 minutes after which 100 μL of water was added to the wells of the plate before centrifugation to pellet precipitated proteins. Supernatants were transferred to another 96-well plate and analyzed for amounts of parent remaining by LC-MS/MS using an Applied Bio-systems API 4000 mass spectrometer. 7-ethoxycoumarin was used as a positive control. The in vitro t1/2 s for test compounds were calculated from the slopes of the linear regression of % parent remaining (ln) vs incubation time relationship. […] Data analysis was performed using Microsoft Excel Software.
For orientation: Liver microsomes are a subcellular fraction often used to study metabolism.

Data set [2] is described as follows: Compound stability in human liver microsomes (Example 16, design as Example 15). The conditions noted are these: 1 μM test compound; for half-life at 1 μM: pooled human liver microsomes, pH 7.4, human liver microsomes 0.5 mg/mL; for % Difference with respect to non-deuterated analog: t1/2 vs 105-H or 106-H; for % Difference with respect to non-deuterated analog / % Difference with respect to non-deuterated Erlotinib: 0.5 mg/mL HLM; for % Difference with respect to non-deuterated Erlotinib: t1/2 vs erlotinib. It is filed as in vitro ADME. The procedure: The metabolic stability of compounds of the invention was tested using pooled liver microsomal incubations. Samples of the test compounds, exposed to pooled human liver microsomes, were analyzed using HPLC-MS (or MS/MS) detection. For determining metabolic stability, multiple reaction monitoring (MRM) was used to measure the disappearance of the test compounds.
Experimental Procedures. Human liver microsomes (“HLM”; 20 mg/mL) were obtained from Xenotech, LLC (Lenexa, Kans.). β-nicotinamide adenine dinucleotide phosphate, reduced form (NADPH), magnesium chloride (MgCl2), and dimethyl sulfoxide (DMSO) were purchased from Sigma-Aldrich.
Stock solutions of test compounds (7.5 mM) were prepared in DMSO. The 7.5 mM stock solutions were diluted to 50 μM in acetonitrile (ACN). The 20 mg/mL human liver microsomes were diluted to 0.625 mg/mL in 0.1 M potassium phosphate buffer, pH 7.4, containing 3 mM MgCl2. The diluted microsomes (375 μL) were added to wells of a 96-well deep-well polypropylene plate in triplicate. A 10 μL aliquot of the 50 μM test compound solution was added to the microsomes and the mixture was pre-warmed for 10 minutes. Reactions were initiated by addition of 125 μL of pre-warmed NADPH solution (8 mM NADPH in 0.1M potassium phosphate buffer, pH 7.4, containing 3 mM MgCl2). The final reaction volume was 0.5 mL and contained 0.5 mg/mL human liver microsomes, 1 μM test compound, and 2 mM NADPH in 0.1 M potassium phosphate buffer, pH 7.4, and 3 mM MgCl2. The reaction mixtures were incubated at 37° C., and 50 μL aliquots were removed at 0, 5, 10, 20, and 30 minutes and added to shallow-well 96-well plates which contained 50 μL of ice-cold ACN with internal standard to stop the reactions. The plates were stored at 4° C. for 20 minutes after which 100 μL of water was added to the wells of the plate before centrifugation to pellet precipitated proteins. Supernatants were transferred to another 96-well plate and analyzed for amounts of parent remaining by LC-MS/MS using an Applied Bio-systems API 4000 mass spectrometer. 7-ethoxycoumarin was used as a positive control.
The in vitro t1/2 s for test compounds were calculated from the slopes of the linear regression of % parent remaining (ln) vs incubation time relationship.
in vitro t1/2=0.693/k, where k=−[slope of linear regression of % parent remaining(ln) vs incubation time]. Data analysis was performed using Microsoft Excel Software.
Evaluation of Compound Stability in Human Liver Microsomes.

Regarding `C#Cc1cccc(Nc2ncnc3cc(OCCOC)c(OCCOC)cc23)c1` [Erlotinib, [6,7-Bis-(2-methoxy-ethoxy)-quinazolin-4-yl]-(3-ethynyl-phenyl)-amine, reference compound], the half-life (in general, the time needed for the level to fall by half in the phase considered) at 1 μM is 0.963 h in data set [1] and 0.997 h in data set [2].
Take `[2H]C([2H])([2H])OC([2H])([2H])C([2H])([2H])Oc1cc2ncnc(Nc3cccc(C#C)c3)c2cc1OC([2H])([2H])C([2H])([2H])OC([2H])([2H])[2H]` [Compound 120, N-(3-Ethynylphenyl)-6,7-bis(2-(methoxy-d3)ethoxy-d4)quinazolin-4-amine]: in data set [1], the half-life at 1 μM amounted to 1.14 h.
Take `[2H]C([2H])([2H])OC([2H])([2H])COc1cc2ncnc(Nc3cccc(Br)c3)c2cc1OCC([2H])([2H])OC([2H])([2H])[2H]` [Compound 105, N-(3-Bromophenyl)-6,7-bis(2-(methoxy-d3)-2,2-d2-ethoxy)quinazolin-4-amine]: in data set [2], the half-life at 1 μM was found to be 1.18 h, the “% Difference with respect to non-deuterated analog” value was 35% and the “% Difference with respect to non-deuterated Erlotinib” value was 19%.
With `[2H]C([2H])([2H])OC([2H])([2H])C([2H])([2H])Oc1cc2ncnc(Nc3ccc(F)c(C#C)c3)c2cc1OC([2H])([2H])C([2H])([2H])OC([2H])([2H])[2H]` [Compound 121, N-(3-Ethynyl-4-fluorophenyl)-6,7-bis(2-(methoxy-d3)ethoxy-d4)quinazolin-4-amine], in data set [1], the “% Difference (t1/2 compared to erlotinib)” value is listed as −12% and the half-life at 1 μM is 0.847 h.
For the molecule `[2H]C([2H])([2H])OC([2H])([2H])COc1cc2ncnc(Nc3ccc(O)c(C#C)c3)c2cc1OCC([2H])([2H])OC([2H])([2H])[2H]` [Compound 138, 4-(6,7-Bis(2-(methoxy-d3)-2,2-d2-ethoxy)quinazolin-4-ylamino)-2-ethynylphenol], the half-life at 1 μM in data set [1] is 1.48 h.
As to `[2H]C([2H])([2H])OC([2H])([2H])COc1cc2ncnc(Nc3cccc(Cl)c3)c2cc1OCC([2H])([2H])OC([2H])([2H])[2H]` [Compound 106, N-(3-Chlorophenyl)-6,7-bis(2-(methoxy-d3)-2,2-d2-ethoxy)quinazolin-4-amine], in data set [2], the half-life at 1 μM is 1.54 h, the “% Difference with respect to non-deuterated analog” value worked out at 22% and the “% Difference with respect to non-deuterated Erlotinib” value turned out to be 55%.
For the molecule `[2H]C([2H])([2H])OC([2H])([2H])COc1cc2ncnc(Nc3ccc(F)c(C#C)c3)c2cc1OCC([2H])([2H])OC([2H])([2H])[2H]` [Compound 135, N-(3-Ethynyl-4-fluorophenyl)-6,7-bis(2-(methoxy-d3)-2,2-d2-ethoxy)quinazolin-4-amine], in data set [1], the “% Difference (t1/2 compared to erlotinib)” value is given as −19% and the half-life at 1 μM stood at 0.785 h.

The values are drawn from patent publication US20090269354A1, “QUINAZOLINE DERIVATIVES AND METHODS OF TREATMENT” (Concert Pharmaceuticals, Inc., priority 2008, published 2009).
